According to EP3553061A1, “NEW INHIBITORS OF BONE RESORPTION” (CENTRE NATIONAL DE LA RECHERCHE SCIENTIFIQUE (CNRS), priority 2018, dated 2019):
pIC50: −log10 of the molar value. “And” between values parts separate entries of the source, which are not always exact repeats. Equal values may be shown once. Read-outs that look alike come from different tables or passages of the source.

Target: T1, human Dock5 (Homo sapiens, UniProt Q9H7D0)
T1 construct: plasmid expressing the catalytic DHR2 domain of mouse or human Dock5; expressed in transfected cells; host or cells: 293T cells
Test: Pull down assay of Rac activation by human Dock5 DHR2 in transfected 293T cells
Assay type: cell-based
Settings: for pIC50: 1 hour treatment; for inhibition at 100 µM: read-out: Inhibition
Protocol: Compounds E73, E88 and E78 were tested for their inhibiting effect of the activation of Rac by mouse Dock5 of and for certain human Dock5 according to a screening test using a pull down assay as represented in Figure 1.
Methodology (Figure 1): cells 293T seeded onto 100 mm diameter plates in a DMEM culture medium containing 10% serum in an incubator in 5.5% CO2 humidified atmosphere at 37°C. When they reach the density of 5x10^6 cells per plate, cells are transfected with 8 µg of plasmid expressing the catalytic DHR2 domain of mouse or human Dock5 in order to activate endogenous GTPase Rac. After 24 hours, the cells are lifted using trypsin and are seeded 10^6 per well in 6-well plates of 35 mms in diameter. The following day, the cells are put in contact during one hour with the compound, in a mother solution at 20 mM into 100% DMSO, to a test concentration of 100 µM into 0.5% DMSO in the DMEM medium containing 0.1% of BSA. The basal activation of Rac by Dock5 is measured from the cells treated with 0.5% DMSO. After treatment, the cells are observed under the optical microscope to make sure of the absence of any toxic effect of the compound. If cell suffering is detected, the test is invalidated and the compound is retested at a lower dosage. The cells are then lysed in 100 µl of the pull down buffer (10% glycerol, 50 mm Tris pH 7.4, 100 mM NaCl, 1% IGEPAL® CA-630 (SIGMA I3021), 2 mM MgCl2 supplemented with proteases inhibitors) and the lysate is incubated during one hour with 20 µg of sepharose beads coupled with the fusion protein GST-PAK-CRIB, which binds specifically the activated form of GTPase Rac, which is bound to GTP. After centrifugation and washings, the proteins associated with the beads, including active Rac GTPase, are denatured and loaded on an SDS PAGE gel. […] For each compound tested, the level of active Rac GTPase is quantified using the Image J software and is normalized to the concentration of total protein in the whole cell lysate. The efficiency of the molecule is defined by the level of active Rac after treatment compared to the level of active Rac in the cells treated with DMSO (control). An activity is considered as inhibitory if the level of Rac activation decreases by at least 10%, 20%, in particular at least 30%, 40%, and preferably at least 50% compared to the control treated with DMSO (Table 1).
The same approach was used to test the potency of molecules of the 48ED family, on the activity of human Dock5 DHR2 (Table 2). Table 2: Inhibitory activity of the compounds of the 48ED family on human Dock5 activity.

[1] = HEK-293T, Table 3, human Dock5, at 50µM
[2] = Table 3, human Dock5, test concentration 100 µM, 1 hour, replicate values, 100 µM
[3] = HEK-293T, Table 3, human Dock5, test concentration 100 µM, 1 hour, replicate values
[4] = Table 2, human Dock5 DHR2, test concentration 100 µM, 1 hour, replicate values, Negative = Rac activation does not decrease, 100 µM
[5] = HEK-293T, Table 2, human Dock5 DHR2, test concentration 100 µM, 1 hour, replicate values, Negative = Rac activation does not decrease
[6] = Table 2, human Dock5 DHR2, test concentration 100 µM, 1 hour, replicate values, Negative = Rac activation does not decrease
[7] = Table 3, human Dock5, test concentration 100 µM, 1 hour, replicate values

T1 sequence (Q9H7D0 1231-1642 limits assumed): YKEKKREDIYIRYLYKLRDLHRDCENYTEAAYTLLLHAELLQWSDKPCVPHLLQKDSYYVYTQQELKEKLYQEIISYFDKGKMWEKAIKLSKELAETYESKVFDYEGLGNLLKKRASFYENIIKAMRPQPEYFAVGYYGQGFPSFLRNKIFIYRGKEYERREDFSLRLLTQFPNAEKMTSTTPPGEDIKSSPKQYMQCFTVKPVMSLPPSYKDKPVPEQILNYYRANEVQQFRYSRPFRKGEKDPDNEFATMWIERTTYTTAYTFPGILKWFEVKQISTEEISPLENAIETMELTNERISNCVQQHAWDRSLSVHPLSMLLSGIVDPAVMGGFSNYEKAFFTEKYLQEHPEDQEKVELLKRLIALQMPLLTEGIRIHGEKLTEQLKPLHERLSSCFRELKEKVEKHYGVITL

In the case of `O=S1(=O)N(c2ccccc2)C[C@H](O)[C@]12CCN(Cc1ccccc1Cl)C2` (racemic) [E196, rac-(4S,5R)-7-(2-chlorobenzyl)-4-hydroxy-2-phenyl-1-thia-2,7-diazaspiro[4.4]nonane 1,1-dioxide], the inhibition at 50 µM [1] was 40%, the Inhibition [2] was 95% (2×) and 35% and the pIC50 (human Dock5) was 4.46.

In the case of `O=S1(=O)N(c2ccccc2)C[C@H](O)[C@]12CCN(Cc1cnc3ccccc3c1)C2` (racemic) [E203, rac-(4S,5R)-4-hydroxy-2-phenyl-7-(quinolin-3-ylmethyl)-1-thia-2,7-diazaspiro[4.4]nonane 1,1-dioxide], the inhibition at 50 µM [1] was 95%, the Inhibition (Table 3, human Dock5, at 50µM) was 90% and the pIC50 (human Dock5) was 4.66.

`Cn1cc(CN2CC[C@@]3(C2)[C@@H](O)CN(c2ccccc2)S3(=O)=O)c2ccccc21` (racemic) [E204, rac-(4S,5R)-4-hydroxy-7-((1-methyl-1H-indol-3-yl)methyl)-2-phenyl-1-thia-2,7-diazaspiro[4.4]nonane 1,1-dioxide] was tested, and the inhibition at 50 µM [1] was 60%, the inhibition at 100 µM [3] was 100% and the Inhibition [2] was 95%. It also gave a pIC50 (human Dock5) of 4.48.

For `O=S1(=O)N(c2ccccc2)C[C@H](O)[C@]12CCN(Cc1cc3ccccc3o1)C2` (racemic) [E205, rac-(4S,5R)-7-(benzofuran-2-ylmethyl)-4-hydroxy-2-phenyl-1-thia-2,7-diazaspiro[4.4]nonane 1,1-dioxide], the inhibition at 50 µM [1] was 70%, the inhibition at 100 µM [3] was 100% and the pIC50 (human Dock5) was 4.37.

For `O=S1(=O)N(c2ccccc2)C[C@H](O)[C@]12CCN(Cc1ccc3c(c1)CCC3)C2` (racemic) [E210, rac-(4S,5R)-7-((2,3-dihydro-1H-inden-5-yl)methyl)-4-hydroxy-2-phenyl-1-thia-2,7-diazaspiro[4.4]nonane 1,1-dioxide], the inhibition at 50 µM [1] was 85% and the pIC50 (human Dock5) was 4.49.

For `COc1ccc(CN2CC[C@@]3(C2)[C@@H](O)CN(c2ccccc2)S3(=O)=O)cc1F` (racemic) [E211, rac-(4S,5R)-7-(3-fluoro-4-methoxybenzyl)-4-hydroxy-2-phenyl-1-thia-2,7-diazaspiro[4.4]nonane 1,1-dioxide], the inhibition at 50 µM [1] was 90% and the pIC50 (human Dock5) was 4.36.

In the case of `O=S1(=O)N(c2ccccc2)C[C@H](O)[C@]12CCN(Cc1ccccc1)C2` [E118], the Inhibition [4] was 85% (2×) and 60% and 55%.

Compound `O=S1(=O)N(c2ccccc2)C[C@@H](O)[C@]12CCN(Cc1ccccc1)C2` [E119] has an inhibition at 100 µM [5] of 25%.

For `CN1C[C@H](O)[C@]2(CCN(Cc3ccccc3)C2)S1(=O)=O` [E120], the Inhibition [6] was “Negative”.

With `CN1C[C@@H](O)[C@]2(CCN(Cc3ccccc3)C2)S1(=O)=O` [E121] the Inhibition [6] was “Negative”.

`O=S1(=O)N(c2ccccc2)C[C@H](O)[C@]12CCNC2` [E123] showed an inhibition at 100 µM [5] of 10%.

In the case of `CO[C@H]1CN(C)S(=O)(=O)[C@@]12CCN(Cc1ccccc1)C2` [E124], the Inhibition [6] was “Negative”.

In the case of `CO[C@@H]1CN(C)S(=O)(=O)[C@@]12CCN(Cc1ccccc1)C2` [E125], the Inhibition [6] was “Negative”.

In the case of `CN1C[C@H](Oc2ccccn2)[C@]2(CCN(Cc3ccccc3)C2)S1(=O)=O` [E126], the inhibition at 100 µM [5] was 10%.

In the case of `O=S1(=O)N(c2ccccc2)C[C@H](O)[C@]12CCN(Cc1ccc(F)cc1)C2` [E127], the Inhibition [4] was 40% and 50% and 85% and 90%.

Compound `O=S1(=O)N(c2ccccc2)C[C@H](O)[C@]12CCN(Cc1cccc(C(F)(F)F)c1)C2` [E128] has an inhibition at 50 µM (HEK-293T, Table 2, human Dock5 DHR2, at 50µM) of 70% and an inhibition at 100 µM [5] of 90%.

`N#Cc1ccc(CN2CC[C@@]3(C2)[C@@H](O)CN(c2ccccc2)S3(=O)=O)cc1` [E129] was tested, and the Inhibition [4] was 70% and 90% and 95%.

In the case of `CS(=O)(=O)c1ccc(CN2CC[C@@]3(C2)[C@@H](O)CN(c2ccccc2)S3(=O)=O)cc1` [E131], the Inhibition [4] was 50% and 70% and 90%.

In the case of `O=S1(=O)N(c2ccccc2)C[C@H](O)[C@]12CCN(Cc1ccc3ccccc3c1)C2` [E132], the inhibition at 10 µM (HEK-293T, Table 2, human Dock5 DHR2, at 10µM) was 50%, the inhibition at 100 µM [5] was 70% and the Inhibition (Table 2, human Dock5 DHR2, at 10µM) was 60%.

Work on `CC(=O)N1CC[C@@]2(C1)[C@@H](O)CN(c1ccccc1)S2(=O)=O` [E133] yielded an inhibition at 100 µM [5] of 5%.

In the case of `O=C(CC1CCCC1)N1CC[C@@]2(C1)[C@@H](O)CN(c1ccccc1)S2(=O)=O` [E135], the Inhibition [4] was 70% and 50% and 95%.

For `Cc1cc(C(=O)N2CC[C@@]3(C2)[C@@H](O)CN(c2ccccc2)S3(=O)=O)no1` [E136], the inhibition at 100 µM [5] was 30%.

In the case of `O=C(c1ccccc1)N1CC[C@@]2(C1)[C@@H](O)CN(c1ccccc1)S2(=O)=O` [E137], the Inhibition [4] was 70% and 40% and 15%.

`CS(=O)(=O)N1CC[C@@]2(C1)[C@@H](O)CN(c1ccccc1)S2(=O)=O` [E138] was tested, and the inhibition at 100 µM [5] was 30%.

In the case of `O=S1(=O)N(c2ccccc2)C[C@@H](O)[C@]12CCN(Cc1ccccc1F)C2` [E139], the Inhibition [4] was 60% and 10%.

With `COC(=O)c1ccc(CN2CC[C@@]3(C2)[C@H](O)CN(c2ccccc2)S3(=O)=O)cc1` [E140] the inhibition at 100 µM [5] was 50%.

For `O=S1(=O)N(c2ccccc2)C[C@H](O)[C@]12CCN(CC1CCCCC1)C2` [E198], the Inhibition [2] was 95% and 10% and 85%.

`Cc1noc(C)c1CN1CC[C@@]2(C1)[C@@H](O)CN(c1ccccc1)S2(=O)=O` [E199] was tested, and the inhibition at 100 µM [3] was 40% and the Inhibition [7] was 40% / 40%.

With `Cn1cc(CN2CC[C@@]3(C2)[C@@H](O)CN(c2ccccc2)S3(=O)=O)cn1` [E201] the Inhibition [2] was 60% and 10% (2×).

`O=S1(=O)N(c2ccccc2)C[C@H](O)[C@]12CCN(Cc1ccc3c(c1)OCO3)C2` [E206] was tested, and the Inhibition [2] was 50% and 100% and 70%.

With `O=S1(=O)N(c2ccccc2)C[C@H](O)[C@]12CCN(C1CCCCCC1)C2` [E207] the inhibition at 100 µM [3] was 20%.

Compound `O=S1(=O)N(c2ccccc2)C[C@H](O)[C@]12CCN(Cc1cccs1)C2` [E208] has an inhibition at 100 µM [3] of 35%.

Compound `COc1cc(CN2CC[C@@]3(C2)[C@@H](O)CN(c2ccccc2)S3(=O)=O)cc(OC)c1` [E209] has an inhibition at 100 µM [3] of 35%.

Work on `O=S1(=O)N(c2ccccc2)C[C@H](O)[C@]12CCN(Cc1ccc3[nH]ccc3c1)C2` [E212] yielded an inhibition at 100 µM [3] of 98% and an Inhibition [2] of 100%.

With `CN(C)c1ccc(CN2CC[C@@]3(C2)[C@@H](O)CN(c2ccccc2)S3(=O)=O)cc1` [E213] the inhibition at 100 µM [3] was 90% and the Inhibition [7] was 90%/ 90%.

`N#Cc1cccc(CN2CC[C@@]3(C2)[C@@H](O)CN(c2ccccc2)S3(=O)=O)c1` [E214] was tested, and the Inhibition [2] was 90% and 50%.

`O=S1(=O)N(c2ccccc2)C[C@H](O)[C@]12CCN(CCc1ccccc1)C2` [E217] gave an inhibition at 100 µM [5] of 25%.

For `O=S1(=O)N(Cc2ccccc2)C[C@H](Oc2ccccn2)[C@]12CCN(Cc1ccccc1)C2` [E224], the inhibition at 100 µM [3] was 20%.

`CO[C@H]1CN(Cc2ccccc2)S(=O)(=O)[C@@]12CCN(Cc1ccccc1)C2` [E225] showed an inhibition at 100 µM [3] of 35%.

`O=C1N(c2cccc(F)c2)CCC12CCN(Cc1cccc(Cl)c1)C2` (stereo not drawn) [E226, 7-(3-chlorobenzyl)-2-(3-fluorophenyl)-2,7-diazaspiro[4.4]nonan-1-one] gave an inhibition at 50 µM [1] of 55% and a pIC50 (human Dock5) of 4.70.

`COc1ccc(N2CCC3(CCN(Cc4cccc(Cl)c4)C3)C2=O)cc1OC` (stereo not drawn) [E227] was tested, and the Inhibition [2] was 90% and 50% and 60%.

With `COc1ccc(N2CCC3(CCN(Cc4cccc(Cl)c4)C3)C2=O)cc1C` (stereo not drawn) [E228, 7-(3-chlorobenzyl)-2-(4-methoxy-3-methylphenyl)-2,7-diazaspiro[4.4]nonan-1-one] the inhibition at 50 µM [1] was 65% and the pIC50 (human Dock5) was 5.10.

Compound `O=S1(=O)N(c2ccccc2)C[C@H](OCCO)[C@]12CCN(Cc1ccccc1)C2` [E229] has an inhibition at 50 µM [1] of 65%.

In the case of `CNC(=O)CO[C@H]1CN(c2ccccc2)S(=O)(=O)[C@@]12CCN(Cc1ccccc1)C2` [E230], the Inhibition [2] was 80% and 45% and 30% and 70%.
